Measurements: patent publication US9540392B2, “Thienopyrimidines” (BAYER PHARMA AKTIENGESELLSCHAFT, priority 2012, dated 2017)

target: T1, human full-length MKNK1 (Homo sapiens, UniProt Q9BUB5, T385D); test: MKNK1 kinase high ATP assay (TR-FRET); assay type: biochemical; settings: 2 mM ATP, after preincubation with MKNK1; read-out: MKNK1 IC50 (MKNK1 high ATP)
T1 construct: GST (N); purchased Carna Biosciences 02-145; host or cells: insect cells (baculovirus expression system)
Procedure, shortened: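 Compound was preincubated 15 min at 22° C. with MKNK1 in 50 mM HEPES pH 7.5, 5 mM MgCl2, 1.0 mM DTT, then the reaction ran 30 min at 22° C. with 2 mM ATP and 0.06 μM biotinylated peptide (final).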

T1 sequence (Q9BUB5 1-424 isoform Q9BUB5-2 T344D): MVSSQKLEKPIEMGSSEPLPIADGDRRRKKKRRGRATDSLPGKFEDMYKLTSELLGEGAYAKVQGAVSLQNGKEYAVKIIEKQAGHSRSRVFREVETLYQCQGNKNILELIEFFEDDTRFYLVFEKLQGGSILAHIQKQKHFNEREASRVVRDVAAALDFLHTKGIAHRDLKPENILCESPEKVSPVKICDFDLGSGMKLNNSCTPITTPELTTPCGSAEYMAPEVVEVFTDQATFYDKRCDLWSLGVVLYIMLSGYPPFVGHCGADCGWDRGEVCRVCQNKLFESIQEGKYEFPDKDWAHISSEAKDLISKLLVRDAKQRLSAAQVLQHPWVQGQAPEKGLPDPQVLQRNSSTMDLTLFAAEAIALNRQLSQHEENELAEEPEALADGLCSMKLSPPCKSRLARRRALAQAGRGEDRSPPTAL

Row | IC50 [nM] | SMILES
1 | 3 | O=C(NCc1ccc2c(c1)OCO2)C1CCc2c(sc3ncnc(Nc4ccc5[nH]ncc5c4)c23)C1 (stereo not shown) [Example 23, N-(1,3-Benzodioxol-5-ylmethyl)-4-(1H-indazol-5-ylamino)-5,6,7,8-tetrahydro[1] benzothieno [2,3-d]pyrimidine-7-carboxamide]
2 | 16.8 | CN(CCCCO)C(=O)C1CCc2c(sc3ncnc(Nc4ccc5[nH]ncc5c4)c23)C1 (racemic) [Example 193, (RS)-N-(4-hydroxybutyl)-4-(1H-indazol-5-ylamino)-N-methyl-5,6,7,8-tetrahydro[1]benzothieno[2,3-d]pyrimidine-7-carboxamide]
3 | 15.6 | O=C(NC1COC1)C1CCc2c(sc3ncnc(Nc4ccc5[nH]ncc5c4)c23)C1 (racemic) [Example 78, (RS)-4-(1H-Indazol-5-ylamino)-N-(oxetan-3-yl)-5,6,7,8-tetrahydro[1]benzothieno[2,3-d]pyrimidine-7-carboxamide]
4 | 9 | O=C(NC1CC1)C1CCc2c(sc3ncnc(Nc4ccc5[nH]ncc5c4)c23)C1 (stereo not shown) [Example 44, N-Cyclopropyl-4-(1H-indazol-5-ylamino)-5,6,7,8-tetrahydro[1] benzothieno [2,3-d]pyrimidine-7-carboxamide]
5 | 1020 | CCOC(=O)C1CCc2c(sc3ncnc(Nc4ccc5[nH]nc(C)c5c4)c23)C1 (racemic) [Example 61, (RS)-Ethyl 4-[(3-methyl-1H-indazol-5-yl)amino]-5,6,7,8-tetrahydro[1]benzothieno[2,3-d]pyrimidine-7-carboxylate]
6 | 0.5 | CCOc1cc2[nH]ncc2cc1Nc1ncnc2sc3c(c12)CCC(C(=O)N1CC[C@@H](O)C1)C3 (mixture of isomers) [Example 233, {(7RS)-4-[(6-Ethoxy-1H-indazol-5-yl)amino]-5,6,7,8-tetrahydro[1]benzothieno[2,3-d]pyrimidin-7-yl}[(3R)-3-hydroxypyrrolidin-1-yl]methanone]
7 | 15 | CN(C)C(=O)C1CCc2c(sc3ncnc(Nc4cc5cn[nH]c5cc4OC(F)(F)F)c23)C1 (racemic) [Example 249, (RS)—N,N-Dimethyl-4-{[6-(trifluoromethoxy)-1H-indazol-5-yl]amino}-5,6,7,8-tetrahydro[1]benzothieno[2,3-d]pyrimidine-7-carboxamide]
8 | 8.6 | O=C(C1CCc2c(sc3ncnc(Nc4ccc5[nH]ncc5c4)c23)C1)N1CC(N2CCCCC2)C1 (racemic) [Example 200, (RS)-[4-(1H-indazol-5-ylamino)-5,6,7,8-tetrahydro[1]benzothieno[2,3-d]pyrimidin-7-yl][3-(piperidin-1-yl)azetidin-1-yl]methanone]
9 | 3.3 | CCOc1cc2[nH]ncc2cc1Nc1ncnc2sc3c(c12)CCC(C(=O)N1CC2(CCS2(=O)=O)C1)C3 (racemic) [Example 263, (RS)-(1,1-Dioxido-1-thia-6-azaspiro[3.3]hept-6-yl){4-[(6-ethoxy-1H-indazol-5-yl)amino]-5,6,7,8-tetrahydro[1]benzothieno[2,3-d]pyrimidin-7-yl}methanone]
10 | 1 | CCN(C)C(=O)C1CCc2c(sc3ncnc(Nc4cc5cn[nH]c5cc4OC(C)C)c23)C1 (racemic) [Example 217, (RS)—N-Ethyl-N-methyl-4-{[6-(propan-2-yloxy)-1H-indazol-5-yl]amino}-5,6,7,8-tetrahydro[1]benzothieno[2,3-d]pyrimidine-7-carboxamide]
11 | 0.5 | COc1cc2[nH]ncc2cc1Nc1ncnc2sc3c(c12)CCC(C(=O)N1CCOCC1)C3 (racemic) [Example 175, (RS)-{4-[(6-Methoxy-1H-indazol-5-yl)amino]-5,6,7,8-tetrahydro[1]benzothieno[2,3-d]pyrimidin-7-yl}(morpholin-4-yl)methanone]
12 | 0.5 | CCOc1cc2[nH]ncc2cc1Nc1ncnc2sc3c(c12)CCC(C(=O)N(C)C1CC1)C3 (racemic) [Example 235, (RS)—N—Cyclopropyl-4-[(6-ethoxy-1H-indazol-5-yl)amino]-N-methyl-5,6,7,8-tetrahydro[1]benzothieno[2,3-d]pyrimidine-7-carboxamide]
13 | 9.8 | O=C(NCCc1c[nH]cn1)C1CCc2c(sc3ncnc(Nc4ccc5[nH]ncc5c4)c23)C1 (racemic) [Example 92, (RS)-N-[2-(1H-imidazol-4-yl)ethyl]-4-(1H-indazol-5-ylamino)-5,6,7,8-tetrahydro[1]benzothieno[2,3-d]pyrimidine-7-carboxamide]
14 | 7 | COc1cc2[nH]ncc2cc1Nc1ncnc2sc3c(c12)CCC(C(=O)O)C3 (stereo not shown) [Example 57, 4-[(6-Methoxy-1H-indazol-5-yl)amino]-5,6,7,8-tetrahydro[1]benzothieno[2,3-d]pyrimidine-7-carboxylic acid]
15 | 2180 | CCOC(=O)C1CCc2c(sc3ncnc(Nc4ccc5[nH]ncc5c4C)c23)C1 (racemic) [Example 60, (RS)-Ethyl 4-[(4-methyl-1H-indazol-5-yl)amino]-5,6,7,8-tetrahydro[1]benzothieno[2,3-d]pyrimidine-7-carboxylate]
16 | 0.3 | COc1cc2[nH]ncc2cc1Nc1ncnc2sc3c(c12)CCC(C(=O)N1C[C@@H](O)[C@H](O)C1)C3 (mixture of isomers) [Example 243, [(3R,4R)-3,4-Dihydroxypyrrolidin-1-yl]{(7RS)-4-[(6-methoxy-1H-indazol-5-yl)amino]-5,6,7,8-tetrahydro[1]benzothieno[2,3-d]pyrimidin-7-yl}methanone]
17 | 3 | COc1ccccc1CNC(=O)C1CCc2c(sc3ncnc(Nc4ccc5[nH]ncc5c4)c23)C1 (stereo not shown) [Example 22, 4-(1H-Indazol-5-ylamino)-N-(2-methoxybenzyl)-5,6,7,8-tetrahydro[1] benzothieno[2,3-d] pyrimidine-7-carboxamide]
18 | 12.6 | CN(Cc1ccnn1C)C(=O)C1CCc2c(sc3ncnc(Nc4ccc5[nH]ncc5c4)c23)C1 (racemic) [Example 138, (RS)-4-(1H-indazol-5-ylamino)-N-methyl-N-[(1-methyl-1H-pyrazol-5-yl)methyl]-5,6,7,8-tetrahydro[1]benzothieno[2,3-d]pyrimidine-7-carboxamide]
19 | 9 | CN(C)CCN(C)C(=O)C1CCc2c(sc3ncnc(Nc4ccc5[nH]ncc5c4)c23)C1 (stereo not shown) [Example 45, N-[2-(Dimethylamino)ethyl]-4-(1H-indazol-5-ylamino)-N-methyl-5,6,7,8-tetrahydro[1] benzothieno [2,3-d]pyrimidine-7-carboxamide]
20 | 0.7 | COc1cc2[nH]ncc2cc1Nc1ncnc2sc3c(c12)CCC(C(=O)N1CC2(CCO2)C1)C3 (racemic) [Example 260, (RS)-{4-[(6-Methoxy-1H-indazol-5-yl)amino]-5,6,7,8-tetrahydro[1]benzothieno[2,3-d]pyrimidin-7-yl}(1-oxa-6-azaspiro[3.3]hept-6-yl)methanone]
21 | 7.3 | COCC1CCCN1C(=O)C1CCc2c(sc3ncnc(Nc4ccc5[nH]ncc5c4)c23)C1 (racemic) [Example 204, (RS)-[4-(1H-indazol-5-ylamino)-5,6,7,8-tetrahydro[1]benzothieno[2,3-d]pyrimidin-7-yl][2-(methoxymethyl)pyrrolidin-1-yl]methanone]
22 | 6 | CN(C)CCNC(=O)C1CCc2c(sc3ncnc(Nc4ccc5[nH]ncc5c4)c23)C1 (stereo not shown) [Example 38, N-[2-(Dimethylamino)ethyl]-4-(1H-indazol-5-ylamino)-5,6,7,8-tetrahydro[1] benzothieno [2,3-d]pyrimidine-7-carboxamide]
